Broadly, the IC90 is the concentration needed for an effect of 90%. Low values mean greater potency, high ones weaker potency. The term IC50 denotes the concentration at which inhibition is half-maximal.

Where only a bound is given, the exact number is not on record here.

Assay [1] has as its system Rat1. As to the kind of experiment: 90% reduction in v-Ha-ras (Ras2B) transformed RAT1 cell colony size and number in soft agar assay. The note with it: Rattus norvegicus. It counts as functional.
For assay [2], the target named is Geranylgeranyl transferase type I (Bos taurus, UniProt P29702+Q5EAD5). As to the kind of experiment: Inhibition of Geranylgeranyl transferase type I, an enzyme that recognizes CaaX sequences containing leucine as the terminal residue. The assay is classed as protein-complex assay.
In assay [3] the test system is Rat1. As to the kind of experiment: 90% reduction in v-raf (Raf1a1) transformed RAT1 cell colony size and number in soft agar assay. To be noted: Rattus norvegicus. It counts as functional.
Assay [4] has as its target Protein farnesyltransferase (Bos taurus, UniProt P29702+P49355). As to the kind of experiment: Inhibition of the Farnesyltransferase catalyzed incorporation of [3H]FPP into recombinant Ha-Ras by 50% in bovine brain at a concentration of ca. 1 nM. The assay is classed as tissue-based.

Turning to `N[C@@H](CS)CNc1cccc(Oc2cccc(C(=O)O)c2)c1`, the IC90 in the assay with Rat1 [1] and with Rat1 [3] was above 50 µM throughout. The IC50 was 5.8 µM in assay [2] and 0.25 µM in assay [4].
`N[C@@H](CS)CNc1cccc(Oc2ccc(C(=O)O)cc2)c1`: the IC50 in assay [4] is 3.8 µM.
In the case of `N[C@@H](CS)C(=O)Nc1cccc(Oc2ccc(C(=O)O)cc2)c1`, the half-maximal inhibitory concentration (IC50) in assay [4] is above 100 µM.
With `COC(=O)c1ccc(Oc2cccc(NC(=O)[C@@H](N)CS)c2)cc1`, the IC50 in assay [4] is above 100 µM.
Regarding `COC(=O)c1cccc(Oc2ccc(NC[C@@H](N)CS)cc2)c1`, the IC90 in the assay on Rat1 [1] and in the assay with Rat1 [3] was 10 µM each time. For the same compound, the values for the half-maximal inhibitory concentration (IC50) in assay [2] and in assay [4] were 2.3 µM and 0.65 µM, respectively.
Take `N[C@@H](CS)CNc1ccc(Oc2ccccc2)cc1`: the IC90 in the assay on Rat1 [1] and with Rat1 [3] was 10 µM each time. The results for the IC50 in assay [2] and in assay [4] were 5 µM and 0.46 µM, respectively.
Take `N[C@@H](CS)CNc1ccc(Oc2cccc(CO)c2)cc1`: the IC90 in the assay on Rat1 [1] was around 30 µM; with Rat1 [3], 30 µM. In addition, the IC50 in assay [4] stood at 0.335 µM.
On to `N[C@@H](CS)CNc1ccc(Oc2ccc(C(=O)O)cc2)cc1`, for which, in assay [4], the IC50 turned out to be 3.15 µM.
The same measure, in the same setting: under `Cc1cccc(Oc2cccc(NC[C@@H](N)CS)c2)c1` stands 0.33 µM; under `COC(=O)c1ccc(Oc2ccc(NC(=O)[C@@H](N)CS)cc2)cc1`, above 100 µM.
Same read-out and setting: in the case of `COC(=O)c1cccc(Oc2cccc(NC(=O)[C@@H](N)CS)c2)c1` it was 45 µM.
As to `Cc1cccc(Oc2ccc(NC[C@@H](N)CS)cc2)c1`, the IC90 with Rat1 [1] and in the assay with Rat1 [3] was 10 µM each time. In addition, the IC50 in assay [4] is 0.615 µM.
As for `N[C@@H](CS)CNc1cccc(Oc2ccccc2)c1`, in assay [4], the IC50 was 2.3 µM.
As to `N[C@@H](CS)C(=O)Nc1cccc(Oc2cccc(C(=O)O)c2)c1`, the IC50 in assay [4] was 6.9 µM.
For the compound `COC(=O)c1cccc(Oc2ccc(NC(=O)[C@@H](N)CS)cc2)c1`, the IC50 in assay [4] came out at 45 µM.
As to `N[C@@H](CS)C(=O)Nc1ccc(Oc2cccc(C(=O)O)c2)cc1`, in assay [4], the IC50 was 16 µM.
Consider `N[C@@H](CS)CNc1ccc(Oc2cccc(C(=O)O)c2)cc1`, for which the IC90 in the assay with Rat1 [1] and in the assay with Rat1 [3] was above 50 µM throughout. In addition, the IC50 in assay [4] was 0.403 µM.
Consider `N[C@@H](CS)C(=O)Nc1ccc(Oc2ccc(C(=O)O)cc2)cc1`, for which the IC50 in assay [4] was determined as 39 µM.
